Measurements from the NIST ThermoML archive (doi:10.1016/j.fluid.2018.11.011).
Numbers after ± are expanded uncertainties.

Test: activity coefficient (dimensionless); of the first substance listed, at infinite dilution; xn = mol fraction of the nth substance listed
Conditions: 101.33 kPa, Liquid, Chromatography, x1 = 0

Row | Compound | activity coefficient (323 K) | activity coefficient (338 K) | activity coefficient (353 K) | activity coefficient (308 K)
1 | CCOCC [diethyl ether] + CCCCCCCCCC[N+](C)(C)CCCCCCCCCC.[O-][Cl+3]([O-])([O-])[O-] | 1.03 ± 0.1 | 0.848 ± 0.087 | 0.74 ± 0.077 | –
2 | CCO [ethanol] + CCCCCCCCCC[N+](C)(C)CCCCCCCCCC.F[B-](F)(F)F | 0.469 ± 0.052 | 0.408 ± 0.047 | 0.422 ± 0.048 | 0.539 ± 0.058
3 | CCO [ethanol] + CCCCCCCCCC[N+](C)(C)CCCCCCCCCC.[O-][Cl+3]([O-])([O-])[O-] | 0.497 ± 0.055 | 0.582 ± 0.062 | 0.531 ± 0.058 | 0.623 ± 0.066
4 | CCCCCCC [heptane] + CCCCCCCCCC[N+](C)(C)CCCCCCCCCC.F[B-](F)(F)F | 3.04 ± 0.32 | 2.62 ± 0.28 | 2.48 ± 0.26 | 3.53 ± 0.37
5 | CCCCCCC [heptane] + CCCCCCCCCC[N+](C)(C)CCCCCCCCCC.[O-][Cl+3]([O-])([O-])[O-] | 2.96 ± 0.31 | 2.85 ± 0.3 | 2.67 ± 0.28 | 3.11 ± 0.33
6 | C=CCCCC [hex-1-ene] + CCCCCCCCCC[N+](C)(C)CCCCCCCCCC.F[B-](F)(F)F | 1.52 ± 0.16 | 1.53 ± 0.16 | 1.76 ± 0.18 | 1.51 ± 0.16
7 | C=CCCCC [hex-1-ene] + CCCCCCCCCC[N+](C)(C)CCCCCCCCCC.[O-][Cl+3]([O-])([O-])[O-] | 1.56 ± 0.16 | 1.8 ± 0.19 | 1.73 ± 0.18 | 2.28 ± 0.24
8 | CCCCCC [hexane] + CCCCCCCCCC[N+](C)(C)CCCCCCCCCC.F[B-](F)(F)F | 2.51 ± 0.26 | 2.3 ± 0.24 | 2.2 ± 0.23 | 2.73 ± 0.29
9 | CCCCCC [hexane] + CCCCCCCCCC[N+](C)(C)CCCCCCCCCC.[O-][Cl+3]([O-])([O-])[O-] | 2.48 ± 0.26 | 2.47 ± 0.26 | 2.45 ± 0.26 | 2.49 ± 0.26
10 | CO [methanol] + CCCCCCCCCC[N+](C)(C)CCCCCCCCCC.F[B-](F)(F)F | 0.289 ± 0.038 | 0.285 ± 0.038 | 0.327 ± 0.041 | 0.294 ± 0.039
11 | CO [methanol] + CCCCCCCCCC[N+](C)(C)CCCCCCCCCC.[O-][Cl+3]([O-])([O-])[O-] | 0.351 ± 0.043 | 0.419 ± 0.048 | 0.407 ± 0.047 | 0.447 ± 0.051
12 | C=CCCCCCC [oct-1-ene] + CCCCCCCCCC[N+](C)(C)CCCCCCCCCC.F[B-](F)(F)F | 0.757 ± 0.078 | 0.749 ± 0.078 | 0.951 ± 0.097 | 0.765 ± 0.079
13 | C=CCCCCCC [oct-1-ene] + CCCCCCCCCC[N+](C)(C)CCCCCCCCCC.[O-][Cl+3]([O-])([O-])[O-] | 0.999 ± 0.1 | 1.04 ± 0.11 | 0.938 ± 0.096 | 1.1 ± 0.11
14 | CCCCCCCC [octane] + CCCCCCCCCC[N+](C)(C)CCCCCCCCCC.F[B-](F)(F)F | 3.71 ± 0.39 | 3.13 ± 0.33 | 2.89 ± 0.3 | 4.41 ± 0.46
15 | CCCCCCCC [octane] + CCCCCCCCCC[N+](C)(C)CCCCCCCCCC.[O-][Cl+3]([O-])([O-])[O-] | 3.69 ± 0.39 | 3.42 ± 0.36 | 3.16 ± 0.33 | 3.98 ± 0.42
16 | CCCCC [pentane] + CCCCCCCCCC[N+](C)(C)CCCCCCCCCC.F[B-](F)(F)F | 1.51 ± 0.16 | 1.24 ± 0.13 | 1.08 ± 0.11 | 1.85 ± 0.19
17 | CCCCC [pentane] + CCCCCCCCCC[N+](C)(C)CCCCCCCCCC.[O-][Cl+3]([O-])([O-])[O-] | 1.59 ± 0.17 | 1.44 ± 0.15 | 1.28 ± 0.13 | 1.77 ± 0.18
18 | CC(C)O [propan-2-ol] + CCCCCCCCCC[N+](C)(C)CCCCCCCCCC.F[B-](F)(F)F | 3.47 ± 0.37 | 2.41 ± 0.25 | 1.9 ± 0.2 | –
19 | CC(C)O [propan-2-ol] + CCCCCCCCCC[N+](C)(C)CCCCCCCCCC.[O-][Cl+3]([O-])([O-])[O-] | 1.5 ± 0.16 | 1.54 ± 0.16 | 1.11 ± 0.11 | –
20 | C1CCOC1 [tetrahydrofuran] + CCCCCCCCCC[N+](C)(C)CCCCCCCCCC.F[B-](F)(F)F | 0.662 ± 0.07 | 0.619 ± 0.066 | 0.695 ± 0.073 | –
21 | C1CCOC1 [tetrahydrofuran] + CCCCCCCCCC[N+](C)(C)CCCCCCCCCC.[O-][Cl+3]([O-])([O-])[O-] | 0.478 ± 0.053 | 0.46 ± 0.052 | 0.536 ± 0.058 | –
22 | ClC(Cl)Cl [trichloromethane] + CCCCCCCCCC[N+](C)(C)CCCCCCCCCC.F[B-](F)(F)F | 0.318 ± 0.04 | 0.346 ± 0.042 | 0.399 ± 0.047 | –
23 | ClC(Cl)Cl [trichloromethane] + CCCCCCCCCC[N+](C)(C)CCCCCCCCCC.[O-][Cl+3]([O-])([O-])[O-] | 0.224 ± 0.034 | 0.29 ± 0.038 | 0.302 ± 0.039 | –
